{"source": "patent US20200164026A1", "about": "“Intranasal Delivery of Cell Permeant Therapeutics” (The Trustees of Columbia University in the City of New York, priority 2010, published 2020)", "system": "rats subjected to tMCAo", "experiment": "Intranasal Pen1-XBIR3 prior to tMCAo in rats; immunohistochemistry counts of neurons and processes in the penumbra", "format": "in vivo, rat", "procedure": "Brains were analyzed for expression of activated caspase-6, NF-L, MAP-2, and NeuN at 12 hpr and 24 hpr. […] Therefore, caspase-9 inhibition using this delivery technique reduced caspase-6 activity. […] (Coleman, M., Nat Rev Neurosci 6 (11), 889-898 (2005)). […] Unlike axon density, dendrite levels are unaffected at 12 and 24 hpr (FIG. 4D), which can indicate a slower time-course for dendritic degeneration or a different mechanism of degeneration.\nMouse & Rat Stroke Models. Caspase-6 null (C6^−/−) mice (Jackson Laboratories)^48,49 on C57/B16 background were bred with wild-type C57/B16 mice to generate C6^+/− heterozygotes, hets were bred to generate C6^−/− and wild-type littermates for studies. 2-3 month old male C6^−/− and wild-type littermate mice (23-30 g) as well as adult Wistar male rats 250-300 g (Taconic Laboratories) were subjected to transient middle cerebral artery occlusion (tMCAo) as previously published. (Connolly, et al., Neurosurgery 38 (3), 523-531; discussion 532 (1996); Komotar, et al., Nat Protoc 2 (10), 2345-2347 (2007)). Brains were harvested and processed for western blotting or immunohistochemistry as described below. For mouse neurofunctional analysis, a 28 point neurological functional exam was performed as previously described. (Clark, et al., Neurol Res 19 (6), 641-648 (1997)). Additionally, single mice were placed in a fresh cage at each time point (Pre-stroke, 24 hr reperfusion, 7 days reperfusion) short videos (3 min at each time point) were recorded of each mouse's representative spontaneous activity to illustrate motor deficits in the mouse stroke model.\nIntranasal Delivery of Pen1-XBIR3. While under isofluorane anesthesia and lying on their backs, Pen1-XBIR3 (36.8 μM) was delivered to rats by administering 6 μl drops to alternating nares every two minutes for 20 minutes (60 μl total delivered). (Thorne, et al., Neuroscience 127 (2), 481-496 (2004)). Intranasal treatment was done prior to induction of stroke. Saline was used as a negative control. Brains were harvested for immunohistochemistry or western blotting.\nImmunohistochemistry (IHC), Cell Process Quantification, and Statistical Analysis. Rats and mice were euthanized, perfused with heparin followed by fixation with 4% paraform-aldehyde. Sections were blocked for 1 hr with 10% normal goat serum/1% BSA, incubated with primary antibody overnight at 4° C., washed with PBS-Triton-X100 (0.1%), incubated with the species appropriate Alexa Fluor-conjugated secondary antibody (Invitrogen) for 2 hr at RT. Slides were also stained with Hoechst 33342 for 15 min at RT (1 μg/ml, Invitrogen) or with NeuroTrace fluorescent Nissl stain (1:300, Invitrogen) for 30 min to stain for nuclei. Human samples were additionally treated with Sudan Black (1% in 70% EtOH) for 5 min at RT and washed with 3 changes of PBS (3 min each). For detection of fluorescent staining, sections were imaged with an upright Nikon fluorescent microscope using a SPOT digital camera and with a Perkin-Elmer Spinning Disc Confocal Imaging System. Quantification of neurons and axons was accomplished using the Cell Counter plug-in for ImageJ (NIH). For quantification in the rat brain, 20x magnification images were acquired from the dorsal motor cortex and the […] somatosensory cortex forelimb region; both regions are contained are within the infarct penumbra (FIG. 1A). Single blind counts of processes or neurons were made in both regions of interest and then pooled for each individual animal. Three animals were used per cohort. For mouse brains, 20× magnification images were taken in the S1 somato-sensory cortex forelimb region and similar counts were made as described below. Counts were made for NF-L/MAP-2 positive processes and NeuN positive cell bodies. Comparisons between groups used the student's t test, p-value: 0.05.", "data": [{"substance": "Pen1-XBIR3: BIR3 domain from XIAP, a specific caspase-9 inhibitor, disulfide-linked to Penetratin1 cell transduction peptide (SEQ ID NO: 10)", "values": [{"measurement": "MAP-2 positive processes (dendrites)", "setting": "12 hpr, n=3", "result": "162.0±19.22"}, {"measurement": "NF-L positive axons", "setting": "12 hpr, n=3", "result": "179.7±14.89"}, {"measurement": "NeuN positive cells", "setting": "12 hpr, n=3", "result": "477.3±28.95"}, {"measurement": "MAP-2 positive processes (dendrites)", "setting": "24 hpr, n=3", "result": "138.3±6.766"}, {"measurement": "NeuN positive cells", "setting": "24 hpr, n=3", "result": "453.7±25.44"}, {"measurement": "NeuN positive cells", "setting": "24 hpr, n=3, listed as Pent-XBIR3", "result": "significant protection against neuron loss"}]}]}
